Each compound was assayed against ATX (Homo sapiens (Human), UniProt Q13822) (assay: ATX enzyme inhibition assay (Amplex UltraRed/choline oxidase/HRP, 16:0 Lyso PC substrate)). Conditions: assay buffer pH 7.5; read-out: IC50 (nM) pH 7.5.
Type: biochemical
Experimental: All compounds were prepared as a 10 mM DMSO stock solution.
Solutions at pH 8.5 and pH 7.5 were prepared respectively with the following formulations:
All compounds, including the positive control compound, were diluted 5-fold from 10 mM to 2 mM with DMSO in the first step. The mixture was then diluted to 100 μM with 1× assay buffer.
3. Separate Detection of Compounds with 1× Assay Buffer at Two pH Values:
a) 5 μL of 10× compound diluent was added to a 384-well plate (Greiner 781209) using a motorized pipette (see the “experimental preparation” step). 5 μL of 1× assay buffer containing 5% DMSO was added to both negative and positive control wells. The plate was centrifuged at 300 rpm for 1 minute at room temperature.
b) 2× ATX ([…]) was prepared with 1× assay buffer, and 25 μL of 2× ATX was added to the plate using a motorized pipette. 25 μL of 1× assay buffer was added to the negative control wells and 25 μL of 2× ATX was added to the positive control wells. The plate was centrifuged at 300 rpm for 1 minute at room temperature.
The plate was incubated at room temperature for 10 minutes.
c) 2.5× working solution containing Amplex UltraRed reagent (125 μM), HRP (2.5 U/mL), choline oxidase (1.25 U/mL), and 16:0 Lyso PC (75 μM) was prepared with 1× assay buffer. 20 μL of 2.5× working solution was added to all reaction wells using a motorized pipette. The plate was centrifuged at 300 rpm for 1 minute at room temperature.
d) The plate was detected by SpectraMax with the following procedures: fluorescence mode; excitation at 550 nm; emission at 590 nm; kinetics; read once every 2 minutes; read continuously for 60 minutes.
The calculation formula of % inhibition (i.e., % inhibition rate) was as follows: […]
V0: X-axis is taken as 0 to 30 minutes, Y-axis is taken as fluorescence readings, and the slope corresponding to the straight line fitted by the software GraphPad Prism 8 is the initial response rate.
V0max: Average V0 of the positive control wells in the plate.
V0min: Average V0 of the negative control wells in the plate.
The IC50 of the compounds was calculated from a nonlinear regression line (dose-initial response rate) fitted by % inhibition and log value of compound concentration using the software GrahPad Prism 8.

Row | IC50 [nM] | Structure (SMILES)
1 | 132 | CN(c1nc(-c2ccc(F)cc2)c(C#N)s1)c1c2c(nc3c(F)cc(N4CC5(CN(C(=O)[C@@H]6CCOC6)C5)C4)cc13)CCO2 [Example C11]

Same assay, conditions: assay buffer pH 8.5; read-out: IC50 (nM) pH 8.5

Row | Structure (SMILES) | IC50 [nM]
2 | CN(c1nc(-c2ccc(F)cc2)c(C#N)s1)c1c2c(nc3c(F)cc(N4CC5(CN(C(=O)C6(O)CC6)C5)C4)cc13)COC2 [Example C22] | 73
3 | CN(c1nc(-c2ccc(F)cc2)c(C#N)s1)c1c2c(nc3c(F)cc(N4CCN(CC(=O)N5CC6(CC(O)C6)C5)CC4)cc13)CC2 [Example F2] | 65.2
4 | CN(c1nc(-c2ccc(F)cc2)c(C#N)s1)c1c2c(nc3c(F)cc(N4CC5(CN(C(=O)[C@@H]6COC[C@H]6O)C5)C4)cc13)[C@H](O)CC2 (single isomer, unassigned) [Example E20-b] | 17
5 | CN1CC[C@H](C(=O)N2CC3(C2)CN(c2cc(F)c4nc5c(c(N(C)c6nc(-c7ccc(F)cc7)c(C#N)s6)c4c2)CC[C@@H]5O)C3)C1 (single isomer, unassigned) [Example E18-a] | 23.4
6 | CN(c1nc(-c2ccc(F)cc2)c(C#N)s1)c1c2c(nc3c(F)cc(N4CCN(CC(=O)N5CC6(CCS(=O)(=O)CC6)C5)CC4)cc13)CC2 [Example F4] | 19.6
7 | CN(c1nc(-c2ccc(F)cc2)c(C#N)s1)c1c2c(nc3c(F)cc(N4CCN(CC(=O)N5CC6(CCOCC6)C5)CC4)cc13)CC2 [Example F3] | 60.6
8 | CN(c1nc(-c2ccc(F)cc2)c(C#N)s1)c1c2c(nc3c(F)cc(N4CC5(CN(C(=O)C6CCOCC6)C5)C4)cc13)[C@@H](O)CC2 (single isomer, unassigned) [Example E14-a] | 16.6
9 | CN(c1nc(-c2ccc(F)cc2)c(C#N)s1)c1c2c(nc3c(F)cc(N4CC5(CN(CC(=O)N6CC[C@H](O)C6)C5)C4)cc13)C(O)CC2 (stereo partly drawn) [Example E12] | 97.6
10 | CN(c1nc(-c2ccc(F)cc2)c(C#N)s1)c1c2c(nc3c(F)cc(N4CCN(CC(=O)N5CC(O)C5)CC4)cc13)C(=O)CC2 [Example E2] | 3.46
11 | CN1CC[C@H](C(=O)N2CC3(C2)CN(c2cc(F)c4nc5c(c(N(C)c6nc(-c7ccc(F)cc7)c(C#N)s6)c4c2)CC[C@H]5O)C3)C1 (single isomer, unassigned) [Example E18-b] | 37.1
12 | C[C@@H]1CN(c2cc(F)c3nc4c(c(N(C)c5nc(-c6ccc(F)cc6)c(C#N)s5)c3c2)COC4)CCN1CC(=O)N1CC(O)C1 [Example A32] | 94.3
13 | C[C@H]1CN(c2cc(F)c3nc4c(c(N(C)c5nc(-c6ccc(F)cc6)c(C#N)s5)c3c2)CC[C@H]4O)CCN1CC(=O)N1CC(O)C1 (single isomer, unassigned) [Example E8-b] | 19.4
14 | N#Cc1cc(Br)cc(F)c1NC1=CCCC1=O [E1-2] | 18.2
15 | CN(c1nc(-c2ccc(F)cc2)c(C#N)s1)c1c2c(nc3c(F)cc(N4CC5(CN(C(=O)N6CCCC6)C5)C4)cc13)[C@@H](O)CC2 (single isomer, unassigned) [Example E17-a] | 22.4
16 | C[C@H]1CN(CC(=O)N2CC(O)C2)CCN1c1cc(F)c2nc3c(c(N(C)c4nc(-c5ccc(F)cc5)c(C#N)s4)c2c1)CC[C@H]3O (single isomer, unassigned) [Example E7-b] | 18.9
17 | CN(c1nc(-c2ccc(F)cc2)c(C#N)s1)c1c2c(nc3c(F)cc(N4CC5(CN(C(=O)C6COCC6O)C5)C4)cc13)C(O)CC2 (stereo not drawn) [Example E20] | 23.5

Results, then the compound that gave them:

Row | IC50 [nM] | Structure (SMILES)
18 | 23.5 | CN(c1nc(-c2ccc(F)cc2)c(C#N)s1)c1c2c(nc3c(F)cc(N4CC5(CN(C(=O)[C@@H]6CCOC6)C5)C4)cc13)C(O)CC2 (stereo partly drawn) [Example E13]
19 | 23 | CN(c1nc(-c2ccc(F)cc2)c(C#N)s1)c1c2c(nc3c(F)cc(N4CC5(CN(C(=O)C(C)(C)O)C5)C4)cc13)[C@H](O)CC2 (single isomer, unassigned) [Example E16-b]
20 | 111 | CN(c1nc(-c2ccc(F)cc2)c(C#N)s1)c1c2c(nc3c(F)cc(N4CC5(CN(CC(=O)N6CC(CO)C6)C5)C4)cc13)CCO2 [Example A29]
21 | 20.2 | CN(c1nc(-c2ccc(F)cc2)c(C#N)s1)c1c2c(nc3c(F)cc(N4CC5(CN(C(=O)[C@@H]6CCOC6)C5)C4)cc13)[C@H](O)CC2 (single isomer, unassigned) [Example E13-b]
22 | 35.7 | CN(c1nc(-c2ccc(F)cc2)c(C#N)s1)c1c2c(nc3c(F)cc(N4CC5(CN(CC(=O)N6CCCC6)C5)C4)cc13)C(O)CC2 (stereo not drawn) [Example E11]
23 | 14.7 | CN(c1nc(-c2ccc(F)cc2)c(C#N)s1)c1c2c(nc3c(F)cc(N4CC5(CN(C(=O)C6CCOCC6)C5)C4)cc13)[C@H](O)CC2 (single isomer, unassigned) [Example E14-b]
24 | 19.9 | CN(c1nc(-c2ccc(F)cc2)c(C#N)s1)c1c2c(nc3c(F)cc(N4CCN(CC(=O)N5CC6(CCC(O)CC6)C5)CC4)cc13)CC2 [Example F5]
25 | 61.9 | CN(c1nc(-c2ccc(F)cc2)c(C#N)s1)c1c2c(nc3c(F)cc(N4CC5(CN(C(=O)[C@@H]6CCOC6)C5)C4)cc13)CCO2 [Example C11]
26 | 226 | CN(c1nc(-c2ccc(F)cc2)c(C#N)s1)c1c2c(nc3c(F)cc(N4CC5(CN(CC(=O)N6CC(CO)C6)C5)C4)cc13)COC2 [Example A28]
27 | 24.5 | CN(c1nc(-c2ccc(F)cc2)c(C#N)s1)c1c2c(nc3c(F)cc(N4CC5(CN(C(=O)[C@@H]6CCOC6)C5)C4)cc13)C(=O)CC2 [Example E4]
28 | 30.7 | CN(c1nc(-c2ccc(F)cc2)c(C#N)s1)c1c2c(nc3c(F)cc(N4CC5(CN(C(=O)[C@H]6CCOC6)C5)C4)cc13)C(=O)CC2 [Example E3]
29 | 21.8 | CN(c1nc(-c2ccc(F)cc2)c(C#N)s1)c1c2c(nc3c(F)cc(N4CC5(CN(C(=O)C6CCOC6)C5)C4)cc13)C(O)CC2 (stereo not drawn) [Example E5]
30 | 21.3 | CN(c1nc(-c2ccc(F)cc2)c(C#N)s1)c1c2c(nc3c(F)cc(N4CCN(CC(=O)N5CC(O)C5)CC4)cc13)C(O)CC2 (stereo not drawn) [E1-1]
31 | 49.1 | CN(c1nc(-c2ccc(F)cc2)c(C#N)s1)c1c2c(nc3c(F)cc(N4CC5(CN(C(=O)C(C)(C)O)C5)C4)cc13)COC2 [Example C21]
32 | 18.1 | CN(c1nc(-c2ccc(F)cc2)c(C#N)s1)c1c2c(nc3c(F)cc(N4CC5(CN(C(=O)[C@@H]6COC[C@H]6O)C5)C4)cc13)[C@@H](O)CC2 (single isomer, unassigned) [Example E20-a]
33 | 20.4 | CN(c1nc(-c2ccc(F)cc2)c(C#N)s1)c1c2c(nc3c(F)cc(N4CC5(CN(C(=O)C6(O)CCOC6)C5)C4)cc13)C(O)CC2 (stereo not drawn) [Example E19]
34 | 18.5 | CN(c1nc(-c2ccc(F)cc2)c(C#N)s1)c1c2c(nc3c(F)cc(N4CC5(CN(C(=O)C6(O)CCOCC6)C5)C4)cc13)[C@H](O)CC2 (single isomer, unassigned) [Example E15-b]
35 | 66.8 | CN(c1nc(-c2ccc(F)cc2)c(C#N)s1)c1c2c(nc3c(F)cc(N4CCN(CC(=O)N5CC(C)(O)C5)CC4)cc13)COC2 [Example A35]
36 | 446 | CN(c1nc(-c2ccc(F)cc2)c(C#N)s1)c1c2c(nc3c(F)cc(N4CC5(CN(CC(=O)N6CC(C)(O)C6)C5)C4)cc13)COC2 [Example A34]
37 | 29.2 | CN(c1nc(-c2ccc(F)cc2)c(C#N)s1)c1c2c(nc3c(F)cc(N4CC5(CN(C(=O)[C@H]6COC[C@@H]6O)C5)C4)cc13)[C@H](O)CC2 (single isomer, unassigned) [Example E20-d]
38 | 23.7 | CN(c1nc(-c2ccc(F)cc2)c(C#N)s1)c1c2c(nc3c(F)cc(N4CC5(CN(C(=O)[C@H]6CCOC6)C5)C4)cc13)[C@@H](O)CC2 (single isomer, unassigned) [Example E5-b]
39 | 26.9 | C[C@@H]1CN(CC(=O)N2CC(O)C2)CCN1c1cc(F)c2nc3c(c(N(C)c4nc(-c5ccc(F)cc5)c(C#N)s4)c2c1)COC3 [Example A31]

Source: patent US20250051321A1, “TRICYCLIC DERIVATIVE AND PREPARATION METHOD THEREFOR AND APPLICATION THEREOF” (SHANGHAI JEMINCARE PHARMACEUTICAL CO., LTD., priority 2021, published 2025)
